Measurements from patent US7220758B2, “Ether substituted imidazopyridines” (3M Innovative Properties Company, priority 2002, dated 2007).
Where a name gives a salt, the structure may show the parent alone.

melting point	SMILES
172 to 173.5 °C	CCCc1nc2c(N)nc(C)c(C)c2n1CCCCCS(=O)(=O)c1ccc(C(F)(F)F)cc1
134 to 136 °C	CCCc1nc2c(N)nc(C)c(C)c2n1CCCCCS(=O)(=O)c1ccccc1
130.5 to 132 °C	CCCc1nc2c(N)nc(C)c(C)c2n1CCCCCS(=O)(=O)c1ccc(OC)cc1
186.5 to 188 °C	CCCc1nc2c(N)nc(C)c(C)c2n1CCCS(=O)(=O)c1ccc(Cl)cc1
> 250 °C	CCCc1nc2c(N)nc(C)c(C)c2n1CCCS(=O)(=O)c1ccc(C(=O)O)cc1 (as salt: hydrochloride) [Example 100, 4-[3-(4-Amino-6,7-dimethyl-2-propyl-1II-imidazo[4,5-c]pyridin-1-yl)propane-1-sulfonyl]benzoic acid hydrochloride]
128 to 130 °C	CCOCc1nc2c(N)nc(C)c(C)c2n1CCOCCCc1ccccc1 (as salt: hydrochloride) [Example 123, 2-Ethoxymethyl-6,7-dimethyl-1-[2-(3-phenylpropoxy)ethyl]-1H-imidazo[4,5-c]pyridin-4-amine hydrochloride]
130 to 132 °C	CCCCc1nc2c(N)nc(C)c(C)c2n1CCOc1ccccc1 [Example 3, 2-Butyl-6,7-dimethyl-1-(2-phenoxyethyl)-1H-imidazo[4,5-c]pyridin-4-amine]
107.3 to 108.2 °C	CCOCc1nc2c(N)nc(C)c(C)c2n1CCOCc1ccccc1 [Example 4, 1-[2-(Benzyloxy)ethyl]-2-(ethoxymethyl)-6,7-dimethyl-1H-imidazo[4,5-c]pyridin-4-amine]
99.5 to 100 °C	CCCc1nc2c(N)nc(C)c(C)c2n1CCOCc1ccccc1 [Example 6, 1-[2-(Benzyloxy)ethyl]-6,7-dimethyl-2-propyl-1H-imidazo[4,5-c]pyridin-4-amine]
78 to 78.5 °C	CCOCc1nc2c(N)nc(C)c(C)c2n1CCOCCCc1cccnc1 [Example 11, 2-(Ethoxymethyl)-6,7-dimethyl-1-[2-(3-pyridin-3-ylpropoxy)ethyl]-1H-imidazo[4,5-c]pyridin-4-amine]
199 to 200 °C	Cc1nc(N)c2nc(C)n(CCCCCS(C)(=O)=O)c2c1C [Example 78, 1-[5-(Methanesulfonyl)pentyl]-2,6,7-trimethyl-1H-imidazo[4,5-c]pyridin-4-amine]
147 to 149 °C	CCCc1nc2c(N)nc(C)c(C)c2n1CCCCCS(=O)(=O)c1ccc(Cl)cc1 [Example 85, 1-[5-(4-Chlorobenzenesulfonyl)pentyl]-6,7-dimethyl-2-propyl-1H-imidazo[4,5-c]pyridin-4-amine]
143 to 144.5 °C	CCCc1nc2c(N)nc(C)c(C)c2n1CCCCCS(=O)(=O)c1ccccn1 [Example 87, 6,7-Dimethyl-2-propyl-1-[5-(pyridine-2-sulfonyl)pentyl]-1H-imidazo[4,5-c]pyridin-4-amine]
152 to 153 °C	CCCc1nc2c(N)nc(C)c(C)c2n1CCCCS(C)(=O)=O [Example 89, 1-[4-(Methanesulfonyl)butyl]-6,7-dimethyl-2-propyl-1H-imidazo[4,5-c]pyridin-4-amine]
153.5 to 155 °C	CCCc1nc2c(N)nc(C)c(C)c2n1CCCS(C)(=O)=O [Example 90, 1-[3-(Methanesulfonyl)propyl]-6,7-dimethyl-2-propyl-1H-imidazo[4,5-c]pyridin-4-amine]
157 to 158 °C	CCCc1nc2c(N)nc(C)c(C)c2n1CCCCCCS(C)(=O)=O [Example 91, 1-[6-(Methanesulfonyl)hexyl]-6,7-dimethyl-2-propyl-1H-imidazo[4,5-c]pyridin-4-amine]
130 to 132 °C	CCCc1nc2c(N)nc(C)c(C)c2n1CCCCCS(=O)(=O)c1ccc(F)cc1 [Example 92, 1-[5-(4-Fluorobenzenesulfonyl)pentyl]-6,7-dimethyl-2-propyl-1H-imidazo[4,5-c]pyridin-4-amine]
130 to 132 °C	CCCc1nc2c(N)nc(C)c(C)c2n1CCCCCS(=O)(=O)c1ccc(F)cc1F [Example 93, 1-[5-(2,4-Difluorobenzenesulfonyl)pentyl]-6,7-dimethyl-2-propyl-1H-imidazo[4,5-c]pyridin-4-amine]
130 to 131.5 °C	CCCc1nc2c(N)nc(C)c(C)c2n1CCCCCS(=O)(=O)c1ccc(Cl)cc1Cl [Example 95, 1-[5-(2,4-Dichlorobenzenesulfonyl)pentyl]-6,7-dimethyl-2-propyl-1H-imidazo[4,5-c]pyridin-4-amine]
145 to 146 °C	CCCc1nc2c(N)nc(C)c(C)c2n1CCCCCS(C)(=O)=O [Example 96, 1-[5-(Methanesulfonyl)pentyl]-6,7-dimethyl-2-propyl-1H-imidazo[4,5-c]pyridin-4-amine]
172 to 173.5 °C	CCCc1nc2c(N)nc(C)c(C)c2n1CCCS(=O)(=O)c1ccccn1 [Example 98, 6,7-Dimethyl-2-propyl-1-[3-(pyridine-2-sulfonyl)propyl]-1H-imidazo[4,5-c]pyridin-4-amine]
169 to 171 °C	CCCc1nc2c(N)nc(C)c(C)c2n1CCCS(=O)(=O)c1ccc(C(=O)OCC)cc1 [Example 99, 4-[3-(4-Amino-6,7-dimethyl-2-propyl-1H-imidazo[4,5-c]pyridin-1-yl)propane-1-sulfonyl]benzoic acid ethyl ester]
224 to 226 °C	CCCc1nc2c(N)nc(C)c(C)c2n1CCCS(=O)(=O)c1ccc(C(=O)N2CCOCC2)cc1 [Example 101, {4-[3-(4-Amino-6,7-dimethyl-2-propyl-1H-imidazo[4,5-c]pyridin-1-yl)propane-1-sulfonyl]phenyl}morpholin-4-ylmethanone]
145 to 147 °C	CCc1nc2c(N)nc(C)c(C)c2n1CCOCCNS(C)(=O)=O [Example 102, N-{2-[2-(4-Amino-2-ethyl-6,7-dimethyl-1H-imidazo[4,5-c]pyridin-1-yl)ethoxy]ethyl}methanesulfonamide]

Second part, the molecule before the results:

SMILES	melting point
Cc1nc(N)c2nc(C)n(CCOCCN)c2c1C (as salt: salt) [Example 14, 1-[2-(2-Aminoethoxy)ethyl]-2,6,7-trimethyl-1H-imidazo[4,5-c]pyridin-4-amine]	130 to 133 °C
Cc1nc(N)c2nc(C)n(CCOCCNC(=O)N3CCOCC3)c2c1C (as salt: salt) [Example 15, N-{2-[2-(4-Amino-2,6,7-trimethyl-1H-imidazo[4,5-c]pyridin-1-yl)ethoxy]ethyl}morpholine-4-carboxamide]	205 to 207 °C
Cc1nc(N)c2nc(C)n(CCOCCNC(=O)C(C)C)c2c1C (as salt: salt) [Example 16, N-{2-[2-(4-Amino-2,6,7-trimethyl-1H-imidazo[4,5-c]pyridin-1-yl)ethoxy]ethyl}-2-methylpropanamide]	179.5 to 182 °C
Cc1nc(N)c2ncn(CCOc3ccccc3)c2c1C [Example 1, 6,7-Dimethyl-1-(2-phenoxyethyl)-1H-imidazo[4,5-c]pyridin-4-amine]	197 to 199 °C
Cc1nc(N)c2nc(C)n(CCOc3ccccc3)c2c1C [Example 2, 2,6,7-Trimethyl-1-(2-phenoxyethyl)-1H-imidazo[4,5-c]pyridin-4-amine]	176 to 177 °C
Cc1nc(N)c2nc(C)n(CCOCc3ccccc3)c2c1C [Example 5, 1-[2-(Benzyloxy)ethyl]-2,6,7-trimethyl-1H-imidazo[4,5-c]pyridin-4-amine]	136.8 to 137.5 °C
Cc1nc(N)c2nc(C)n(CCOCC#Cc3ccccc3)c2c1C [Example 7, 2,6,7-Trimethyl-1-{2-[(3-phenylprop-2-ynyl)oxy]ethyl}-1H-imidazo[4,5-c]pyridin-4-amine]	186.8 to 187.5 °C
Cc1nc(N)c2nc(C)n(CCOCCCc3ccccc3)c2c1C [Example 8, 2,6,7-Trimethyl-1-[2-(3-phenylpropoxy)ethyl]-1H-imidazo[4,5-c]pyridin-4-amine]	118.1 to 119 °C
Cc1nc(N)c2nc(C)n(CCOC/C=C/c3ccccc3)c2c1C [Example 9, 2,6,7-Trimethyl-1-(2-{[(2E)-3-phenylprop-2-enyl]oxy}ethyl)-1H-imidazo[4,5-c]pyridin-4-amine]	143.7 to 144.8 °C
Cc1nc(N)c2nc(C)n(CCOCCCc3cccnc3)c2c1C [Example 10, 2,6,7-Trimethyl-1-[2-(3-pyridin-3-ylpropoxy)ethyl]-1H-imidazo[4,5-c]pyridin-4-amine]	108.6 to 109.5 °C
CSCCCCCn1c(C)nc2c(N)nc(C)c(C)c21 [Example 12, 2,6,7-Trimethyl-1-[5-(methylthio)pentyl]-1H-imidazo[4,5-c]pyridin-4-amine]	121 to 122 °C
Cc1nc(N)c2nc(C)n(CCCCCSc3ccccc3)c2c1C [Example 13, 2,6,7-Trimethyl-1-[5-(phenylthio)pentyl]-1H-imidazo[4,5-c]pyridin-4-amine]	181 to 183 °C
CCOCc1nc2c(N)nc(C)cc2n1CCOCc1ccccc1 [Example 80, 1-[2-(Benzyloxy)ethyl]-2-(ethoxymethyl)-6-methyl-1H-imidazo[4,5-c]pyridin-4-amine]	127 to 128 °C
CCOCc1nc2c(N)nc(C)c(C)c2n1CCOCCCc1nccs1 [Example 82, 2-(Ethoxymethyl)-6,7-dimethyl-1-{2-[3-(1,3-thiazol-2-yl)propoxy]ethyl}-1H-imidazo[4,5-c]pyridin-4-amine]	91 to 92 °C
Cc1nc(N)c2ncn(CCOCc3ccncc3)c2c1C [Example 84, 6,7-Dimethyl-1-[2-(pyridin-4-ylmethoxy)ethyl]-1H-imidazo[4,5-c]pyridin-4-amine]	195 to 196 °C
CCc1nc2c(N)nc(C)c(C)c2n1CCOCCNC(=O)N1CCOCC1 [Example 103, N-{2-[2-(4-Amino-2-ethyl-6,7-dimethyl-1H-imidazo[4,5-c]pyridin-1-yl)ethoxy]ethyl}morpholine-4-carboxamide]	182 to 184 °C
CCc1nc2c(N)nc(C)c(C)c2n1CCOCCNC(=O)C1CCCCC1 [Example 104, N-{2-[2-(4-Amino-2-ethyl-6,7-dimethyl-1H-imidazo[4,5-c]pyridin-1-yl)ethoxy]ethyl}cyclohexanecarboxamide]	170 to 172 °C
CCc1nc2c(N)nc(C)c(C)c2n1CCOCCNC(=O)NC1CCCCC1 [Example 105]	187 to 189 °C
